“And” between values parts separate entries of the source, which are not always exact repeats. Identical values can stand only once.
Experiments:
[1] = test system: transgenic T2 Arabidopsis plants; assay: Greenhouse spray of transgenic T2 Arabidopsis plants, herbicide injury 0 to 100% phytotox rating (Table A); type: in vivo; details: 14 days after treatment
Method: Additionally, transgenic T2 Arabidopsis plants are tested for improved tolerance to herbicides in greenhouse studies with the following herbicides: methyl 2-[2-chloro-5-[3-chloro-5-(trifluoromethyl)-2-pyridyl]-4-fluoro-phenoxy]-2-methoxy-acetate, and photosynthesis inhibitor diuron as negative control.
Table A: Transgenic T2 Arabidopsis plants, four weeks old, were sprayed in the greenhouse with the indicated amount of compound+1% (v/v) MSO. Herbicide injury was evaluated 14 days after treatment with a 0 to 100% phytotox rating scale where 0 is no injury relative to an unsprayed wild type check and 100% is completely dead.

[2] = test system: T2 maize events expressing the indicated Amaranthus PPO2 variant transgene; assay: Maize whole plant PPO inhibitor tolerance testing, injury 0-9 point scale (Table B); type: in vivo; details: V2 stage, 3 days after treatment, individual plants
Method: Immature embryos are transformed according to the procedure outlined in Peng et al. (WO2006/136596). Plants are tested for the presence of the T-DNA by Taqman analysis with the target being the nos terminator which is present in all constructs. Healthy looking plants are sent to the greenhouse for hardening and subsequent spray testing. The plants are individually transplanted into MetroMix 360 soil in 4″ pots. Once in the greenhouse (day/night cycle of 27° C./21° C. with 14 hour day length supported by 600 W high pressure sodium lights), they are allowed to grow for 14 days. […] 200 g ai/ha saflufenacil+1.0% v/v methylated seed oil (MSO) and/or 25-200 g ai/ha 1,5-dimethyl-6-thioxo-3-(2,2,7-trifluoro-3-oxo-4-(prop-2-ynyl)-3,4-dihydro-2H-benzo[b][1,4]oxazin-6-yl)-1,3,5-triazinane-2,4-dione (CAS 1258836-72-4) plus 1% MSO. Other PPO inhibiting herbicides are also tested in a similar fashion for confirming cross resistance: flumioxazin, butafenacil, acifluorfen, lactofen, bifenox, sulfentrazone, methyl 2-[2-chloro-5-[3-chloro-5-(trifluoromethyl)-2-pyridyl]-4-fluoro-phenoxy]-2-methoxy-acetate, ethyl 2-[2-chloro-5-[3-chloro-5-(trifluoromethyl)-2-pyridyl]-4-fluoro-phenoxy]-2-methoxy-acetate, prop-2-ynyl 2-[2-chloro-5-[3-chloro-5-(trifluoromethyl)-2-pyridyl]-4-fluoro-phenoxy]-2-methoxy-acetate and photosynthesis inhibitor diuron as negative control. […] […] The top survivors are transplanted into gallon pots filled with Metro Mix 360 for seed production.

## COC(=O)C(OC)Oc1cc(-c2ncc(C(F)(F)F)cc2Cl)c(F)cc1Cl (stereo not drawn) [methyl 2-[2-chloro-5-[3-chloro-5-(trifluoromethyl)-2-pyridyl]-4-fluoro-phenoxy]-2-methoxy-acetate]
[1]; construct AMATU_PPO2 R128A_F420V, 150 g ai/ha + 1% (v/v) MSO
  Herbicide injury, 0 to 100% phytotox rating: 73%
[1]; construct AMATU_PPO2 R128I_F420V, 50 g ai/ha + 1% (v/v) MSO
  Herbicide injury, 0 to 100% phytotox rating: 64%
[1]; construct AMATU_PPO2 R128I_F420V, 100 g ai/ha + 1% (v/v) MSO
  Herbicide injury, 0 to 100% phytotox rating: 66%
[1]; construct AMATU_PPO2 R128I_F420V, 200 g ai/ha + 1% (v/v) MSO
  Herbicide injury, 0 to 100% phytotox rating: 80%
[1]; construct AMATU_PPO2 R128L_F420L, 50 g ai/ha + 1% (v/v) MSO
  Herbicide injury, 0 to 100% phytotox rating: 18%
[1]; construct AMATU_PPO2 R128L_F420L, 100 g ai/ha + 1% (v/v) MSO
  Herbicide injury, 0 to 100% phytotox rating: 30%
[1]; construct AMATU_PPO2 R128L_F420L, 200 g ai/ha + 1% (v/v) MSO
  Herbicide injury, 0 to 100% phytotox rating: 56%
[1]; construct AMATU_PPO2 R128M_F420I, 50 g ai/ha + 1% (v/v) MSO
  Herbicide injury, 0 to 100% phytotox rating: 63%
[1]; construct AMATU_PPO2 R128M_F420I, 100 g ai/ha + 1% (v/v) MSO
  Herbicide injury, 0 to 100% phytotox rating: 83%
[1]; construct AMATU_PPO2 R128M_F420I, 200 g ai/ha + 1% (v/v) MSO
  Herbicide injury, 0 to 100% phytotox rating: 91%
[1]; construct AMATU_PPO2 R128M_F420L, 50 g ai/ha + 1% (v/v) MSO
  Herbicide injury, 0 to 100% phytotox rating: 30%
[1]; construct AMATU_PPO2 R128M_F420L, 100 g ai/ha + 1% (v/v) MSO
  Herbicide injury, 0 to 100% phytotox rating: 60%
[1]; construct AMATU_PPO2 R128M_F420L, 200 g ai/ha + 1% (v/v) MSO
  Herbicide injury, 0 to 100% phytotox rating: 73%
[1]; construct AMATU_PPO2 R128M_F420M, 50 g ai/ha + 1% (v/v) MSO
  Herbicide injury, 0 to 100% phytotox rating: 100%
[1]; construct AMATU_PPO2 R128M_F420M, 100 g ai/ha + 1% (v/v) MSO
  Herbicide injury, 0 to 100% phytotox rating: 85%
[1]; construct AMATU_PPO2 R128M_F420M, 200 g ai/ha + 1% (v/v) MSO
  Herbicide injury, 0 to 100% phytotox rating: 100%
[1]; construct AMATU_PPO2 R128M_F420V, 50 g ai/ha + 1% (v/v) MSO
  Herbicide injury, 0 to 100% phytotox rating: 64%
[1]; construct AMATU_PPO2 R128M_F420V, 100 g ai/ha + 1% (v/v) MSO
  Herbicide injury, 0 to 100% phytotox rating: 75%
[1]; construct AMATU_PPO2 R128M_F420V, 200 g ai/ha + 1% (v/v) MSO
  Herbicide injury, 0 to 100% phytotox rating: 93%
[1]; construct Arabidopsis PPO1 S305L_Y426M, 50 g ai/ha + 1% (v/v) MSO
  Herbicide injury, 0 to 100% phytotox rating: 49%
[1]; construct Arabidopsis PPO1 S305L_Y426M, 100 g ai/ha + 1% (v/v) MSO
  Herbicide injury, 0 to 100% phytotox rating: 100%
[1]; construct Arabidopsis PPO1 S305L_Y426M, 150 g ai/ha + 1% (v/v) MSO
  Herbicide injury, 0 to 100% phytotox rating: 100%
[1]; construct CHLSP_PPO_wt_tpFNR (CHLSP_PPO SEQ ID NO: 256), 50 g ai/ha + 1% (v/v) MSO
  Herbicide injury, 0 to 100% phytotox rating: 91%
[1]; construct CHLSP_PPO_wt_tpFNR (CHLSP_PPO SEQ ID NO: 256), 100 g ai/ha + 1% (v/v) MSO
  Herbicide injury, 0 to 100% phytotox rating: 97%
[1]; construct CHLSP_PPO_wt_tpFNR (CHLSP_PPO SEQ ID NO: 256), 200 g ai/ha + 1% (v/v) MSO
  Herbicide injury, 0 to 100% phytotox rating: 95%
[1]; construct OPITE_PPO_wt_tpFNR (OPITE_PPO SEQ ID NO: 249), 50 g ai/ha + 1% (v/v) MSO
  Herbicide injury, 0 to 100% phytotox rating: 100%
[1]; construct OPITE_PPO_wt_tpFNR (OPITE_PPO SEQ ID NO: 249), 100 g ai/ha + 1% (v/v) MSO
  Herbicide injury, 0 to 100% phytotox rating: 100%
[1]; construct OPITE_PPO_wt_tpFNR (OPITE_PPO SEQ ID NO: 249), 200 g ai/ha + 1% (v/v) MSO
  Herbicide injury, 0 to 100% phytotox rating: 100%
[1]; construct hemG_tp_FNR (SEQ ID NO: 245), 50 g ai/ha + 1% (v/v) MSO
  Herbicide injury, 0 to 100% phytotox rating: 96%
[1]; construct hemG_tp_FNR (SEQ ID NO: 245), 100 g ai/ha + 1% (v/v) MSO
  Herbicide injury, 0 to 100% phytotox rating: 100%
[1]; construct hemG_tp_FNR (SEQ ID NO: 245), 200 g ai/ha + 1% (v/v) MSO
  Herbicide injury, 0 to 100% phytotox rating: 99%
[1]; construct hemG_tp_long AMATU (SEQ ID NO: 246), 50 g ai/ha + 1% (v/v) MSO
  Herbicide injury, 0 to 100% phytotox rating: 68%
[1]; construct hemG_tp_long AMATU (SEQ ID NO: 246), 100 g ai/ha + 1% (v/v) MSO
  Herbicide injury, 0 to 100% phytotox rating: 75%
[1]; construct hemG_tp_long AMATU (SEQ ID NO: 246), 200 g ai/ha + 1% (v/v) MSO
  Herbicide injury, 0 to 100% phytotox rating: 79%
[1]; non transformed Arabidopsis, 50 g ai/ha + 1% (v/v) MSO
  Herbicide injury, 0 to 100% phytotox rating: 100%
[1]; non transformed Arabidopsis, 100 g ai/ha + 1% (v/v) MSO
  Herbicide injury, 0 to 100% phytotox rating: 100%
[1]; non transformed Arabidopsis, 150 g ai/ha + 1% (v/v) MSO
  Herbicide injury, 0 to 100% phytotox rating: 100%
[1]; non transformed Arabidopsis, 200 g ai/ha + 1% (v/v) MSO
  Herbicide injury, 0 to 100% phytotox rating: 100%
[2]; maize T2, transgene L397D_F420M, 25 g ai/ha + 1% v/v MSO
  injury on a 0-9 point scale: 0 (2×) and 3 and 1
[2]; maize T2, transgene L397D_F420M, 50 g ai/ha + 1% v/v MSO
  injury on a 0-9 point scale: 0 (2×) and 1 (2×)
[2]; maize T2, transgene L397D_F420M, 100 g ai/ha + 1% v/v MSO
  injury on a 0-9 point scale: 0 (3×) and 1
[2]; maize T2, transgene L397D_F420M, 200 g ai/ha + 1% v/v MSO
  injury on a 0-9 point scale: 0 (2×) and 2 and 1
[2]; maize T2, transgene L397E_F420M, 25 g ai/ha + 1% v/v MSO
  injury on a 0-9 point scale: 9 (2×) and 2 and 0
[2]; maize T2, transgene L397E_F420M, 50 g ai/ha + 1% v/v MSO
  injury on a 0-9 point scale: 0 and 9 (2×) and 1
[2]; maize T2, transgene L397E_F420M, 100 g ai/ha + 1% v/v MSO
  injury on a 0-9 point scale: 4 and 1 and 0
[2]; maize T2, transgene L397E_F420M, 200 g ai/ha + 1% v/v MSO
  injury on a 0-9 point scale: 0 and 6 (2×) and 5
[2]; maize T2, transgene R128A_F420I, 25 g ai/ha + 1% v/v MSO
  injury on a 0-9 point scale: 0 (2×) and 1 (2×)
[2]; maize T2, transgene R128A_F420I, 50 g ai/ha + 1% v/v MSO
  injury on a 0-9 point scale: 2 and 1 (2×) and 0
[2]; maize T2, transgene R128A_F420I, 100 g ai/ha + 1% v/v MSO
  injury on a 0-9 point scale: 0 (2×) and 1 (2×)
[2]; maize T2, transgene R128A_F420I, 200 g ai/ha + 1% v/v MSO
  injury on a 0-9 point scale: 1 (3×) and 0
[2]; maize, Non transgenic, 25 g ai/ha + 1% v/v MSO
  injury on a 0-9 point scale: 8 and 9 (3×)
[2]; maize, Non transgenic, 50 g ai/ha + 1% v/v MSO
  injury on a 0-9 point scale: 9
[2]; maize, Non transgenic, 100 g ai/ha + 1% v/v MSO
  injury on a 0-9 point scale: 9
[2]; maize, Non transgenic, 200 g ai/ha + 1% v/v MSO
  injury on a 0-9 point scale: 9
